Reference: ChEMBL document CHEMBL1201862, “PubChem BioAssay data set” (2004)
The source made the active and inactive calls.

What was measured:
[1] = target: Nuclear receptor subfamily 5 group A member 2 (Homo sapiens, UniProt O00482); format: functional, cell-based;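 note: HEK293T cells transfected with LRH-1 and a StAR promoter luciferase reporter; potency for inhibitors that lower LRH-1 driven reporter light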
Steroidogenic factor 1 = Steroidogenic factor 1 (Homo sapiens, UniProt Q13285); experiment: Counterscreen for inverse agonists of the liver receptor homolog-1 (LRH-1; NR5A2): Luminescence-based cell-based high throughput dose response assay to identify inverse agonists of the Steroidogenic Factor 1 Nuclear Receptor (SF1; NR5A1).; format: functional
Steroidogenic factor 1, sequence (Q13285 whole entry): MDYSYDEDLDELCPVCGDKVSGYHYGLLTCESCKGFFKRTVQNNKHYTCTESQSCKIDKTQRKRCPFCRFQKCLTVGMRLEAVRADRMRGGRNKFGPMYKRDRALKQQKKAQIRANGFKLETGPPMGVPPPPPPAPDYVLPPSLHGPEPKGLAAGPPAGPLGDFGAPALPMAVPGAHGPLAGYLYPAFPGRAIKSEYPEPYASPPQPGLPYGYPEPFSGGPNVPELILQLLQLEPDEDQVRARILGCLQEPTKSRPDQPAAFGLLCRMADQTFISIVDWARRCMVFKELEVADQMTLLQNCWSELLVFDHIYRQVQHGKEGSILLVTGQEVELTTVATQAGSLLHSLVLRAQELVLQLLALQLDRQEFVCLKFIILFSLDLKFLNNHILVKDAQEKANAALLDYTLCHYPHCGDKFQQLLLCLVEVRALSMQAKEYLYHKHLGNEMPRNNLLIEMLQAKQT

[2] = StAR promoter reporter inhibition counter-screen, dose response, counter-screen for LRH-1 inverse agonist project, cell-based, luminescence, luciferase reporter (AID 651969); format: functional
HEK293 [3] = experiment: optical interference in Abeta FP readout, dose response, artefact control for IDE activator project, biochemical, fluorescence polarization (AID 588442); format: functional, cell-based; conditions: Homo sapiens
Insulin-degrading enzyme [4] = target: T1, Insulin-degrading enzyme (Homo sapiens, UniProt P14735); experiment: activators of recombinant IDE enzyme, dose response, counter-screen for IDE activator project, biochemical, fluorescence polarization (AID 588681)
T1 sequence (P14735 whole entry): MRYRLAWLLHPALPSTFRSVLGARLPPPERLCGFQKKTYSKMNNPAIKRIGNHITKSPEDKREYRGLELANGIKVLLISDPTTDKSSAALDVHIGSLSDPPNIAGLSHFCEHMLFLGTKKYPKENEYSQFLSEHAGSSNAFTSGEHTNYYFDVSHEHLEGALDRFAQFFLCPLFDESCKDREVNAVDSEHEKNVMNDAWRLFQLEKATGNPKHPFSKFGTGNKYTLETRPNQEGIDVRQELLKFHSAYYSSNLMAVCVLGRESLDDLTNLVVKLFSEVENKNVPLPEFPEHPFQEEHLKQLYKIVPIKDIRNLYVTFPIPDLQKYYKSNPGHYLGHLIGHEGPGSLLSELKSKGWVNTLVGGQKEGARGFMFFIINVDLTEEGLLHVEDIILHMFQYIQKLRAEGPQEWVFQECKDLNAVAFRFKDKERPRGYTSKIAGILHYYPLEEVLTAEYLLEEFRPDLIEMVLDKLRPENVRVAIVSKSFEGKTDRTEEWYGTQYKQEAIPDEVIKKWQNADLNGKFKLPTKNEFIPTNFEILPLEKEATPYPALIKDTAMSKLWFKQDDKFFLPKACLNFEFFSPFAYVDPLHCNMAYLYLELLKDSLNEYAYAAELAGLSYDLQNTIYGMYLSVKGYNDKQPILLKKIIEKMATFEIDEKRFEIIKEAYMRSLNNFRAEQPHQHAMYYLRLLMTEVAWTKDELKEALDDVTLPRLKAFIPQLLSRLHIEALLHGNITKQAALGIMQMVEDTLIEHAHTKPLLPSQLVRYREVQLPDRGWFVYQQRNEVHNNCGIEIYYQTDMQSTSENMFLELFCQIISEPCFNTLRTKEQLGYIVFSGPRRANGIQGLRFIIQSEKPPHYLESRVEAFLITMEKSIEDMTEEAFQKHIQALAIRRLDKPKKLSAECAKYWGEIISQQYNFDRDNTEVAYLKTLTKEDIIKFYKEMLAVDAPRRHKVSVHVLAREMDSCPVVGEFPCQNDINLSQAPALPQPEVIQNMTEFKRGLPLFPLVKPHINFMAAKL

[5] = THP-1 cell cytotoxicity, dose response, cytotoxicity control for Vif-APOBEC3G degradation inhibitor project, THP-1 cells (AID 1117359); format: functional; conditions: Human immunodeficiency virus 1, THP-1
Protein Tat = target: T2, Protein Tat (Human immunodeficiency virus type 1 group M subtype B (isolate HXB2)(HIV-1), UniProt P04608); format: functional;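 note: tat binding to TAR RNA read out by fluorescence polarization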
T2 sequence (P04608 whole entry): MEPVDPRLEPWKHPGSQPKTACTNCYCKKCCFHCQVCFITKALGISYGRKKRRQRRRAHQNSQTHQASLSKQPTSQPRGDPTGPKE

Insulin-degrading enzyme [6] = target: T1, Insulin-degrading enzyme; experiment: activators of endogenous IDE in HEK cells, dose response, cell-based, fluorescence polarization (AID 588439); format: functional
HEK293 [7] = experiment: HEK cell cytotoxicity by LDH release, dose response, cytotoxicity control for IDE activator project, fluorescence, HEK cells (AID 588440); format: functional, cell-based; conditions: Homo sapiens;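 note: cytotoxicity by LDH release measuring loss of membrane integrity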
Estrogen receptor beta = Estrogen receptor beta (Homo sapiens, UniProt Q92731); experiment: ERβ–SRC-3 coactivator interaction inhibitors, confirmation, orthogonal assay, biochemical, ELISA, streptavidin-HRP readout (AID 1060)
Estrogen receptor beta, sequence (Q92731 whole entry): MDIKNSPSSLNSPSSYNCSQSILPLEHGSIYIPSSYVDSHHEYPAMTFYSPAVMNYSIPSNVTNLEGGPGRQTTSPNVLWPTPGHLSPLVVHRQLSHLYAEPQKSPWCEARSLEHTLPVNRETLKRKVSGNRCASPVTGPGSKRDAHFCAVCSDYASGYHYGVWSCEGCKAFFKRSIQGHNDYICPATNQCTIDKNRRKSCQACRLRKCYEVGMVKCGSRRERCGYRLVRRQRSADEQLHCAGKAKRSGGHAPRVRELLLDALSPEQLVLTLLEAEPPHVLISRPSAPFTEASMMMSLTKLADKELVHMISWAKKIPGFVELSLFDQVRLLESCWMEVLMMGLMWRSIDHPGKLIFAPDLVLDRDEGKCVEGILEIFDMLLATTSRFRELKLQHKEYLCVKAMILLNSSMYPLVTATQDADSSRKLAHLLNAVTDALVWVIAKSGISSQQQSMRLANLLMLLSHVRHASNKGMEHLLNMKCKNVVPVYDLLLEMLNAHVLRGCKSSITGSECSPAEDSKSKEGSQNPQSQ

[8] = target: Low molecular weight phosphotyrosine protein phosphatase (Homo sapiens, UniProt P24666); format: functional; conditions: read-out: IC50_Mean;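 note: Dose-response confirmation assay measuring inhibition of LMPTP enzyme activity by fluorescence intensity read-out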
Low molecular weight phosphotyrosine protein phosphatase, sequence (P24666 whole entry): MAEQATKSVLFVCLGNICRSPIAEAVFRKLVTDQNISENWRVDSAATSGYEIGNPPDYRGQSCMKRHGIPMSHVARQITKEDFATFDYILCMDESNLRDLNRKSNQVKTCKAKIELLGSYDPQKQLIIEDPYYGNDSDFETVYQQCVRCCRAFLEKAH

[9] = control 3'UTR Renilla luciferase suppression, dose response, counter-screen for Shn3 inhibitor project, cell-based, Clone20-Shn3RL, cherry-picked (AID 624133); format: functional
[10] = HepG2 cell cytotoxicity, dose response, cytotoxicity control for Shn3 inhibitor project, CellTiter-Glo, cherry-picked (AID 624134); format: functional, cell-based
[11] = Shn3 3'UTR reporter inhibitors, dose response, cell-based, Clone20 osteoblasts, firefly luciferase, cherry-picked (AID 624132); format: functional;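 note: firefly luciferase luminescence from reporter carrying the Shn3 3'UTR in osteoblasts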
Beta Lactamase = Beta Lactamase (Pseudomonas aeruginosa, UniProt Q932Y6); experiment: beta-lactamase reporter inhibitor potency, dose response, artefact control for NOD2-RIPK2 interaction inhibitor project, BLA reporter cells, FRET fluorescence (AID 651552); format: functional, cell-based
Beta Lactamase, sequence (Q932Y6 whole entry, the tested form may be a part): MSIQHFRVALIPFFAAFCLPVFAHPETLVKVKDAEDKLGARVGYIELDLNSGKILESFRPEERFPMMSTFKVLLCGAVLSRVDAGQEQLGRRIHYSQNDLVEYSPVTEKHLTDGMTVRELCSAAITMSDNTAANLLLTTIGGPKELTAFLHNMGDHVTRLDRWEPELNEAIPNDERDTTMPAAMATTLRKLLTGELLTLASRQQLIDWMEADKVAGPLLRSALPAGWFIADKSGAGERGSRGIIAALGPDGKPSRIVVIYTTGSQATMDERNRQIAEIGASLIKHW

[12] = Fluorescence-based cell-based high throughput dose response assay for inhibitors of the interaction of nucleotide-binding oligomerization domain containing 2 (NOD2) and the receptor-interacting serine-threonine kinase 2 (RIPK2).; format: functional; conditions: Homo sapiens
[13] = target: T3, Sentrin-specific protease 7 (Homo sapiens, UniProt Q9BQF6); experiment: SENP7 protease inhibitors, SAR follow-up, biochemical, luminescence (AID 504497); format: functional
T3 sequence (Q9BQF6 whole entry): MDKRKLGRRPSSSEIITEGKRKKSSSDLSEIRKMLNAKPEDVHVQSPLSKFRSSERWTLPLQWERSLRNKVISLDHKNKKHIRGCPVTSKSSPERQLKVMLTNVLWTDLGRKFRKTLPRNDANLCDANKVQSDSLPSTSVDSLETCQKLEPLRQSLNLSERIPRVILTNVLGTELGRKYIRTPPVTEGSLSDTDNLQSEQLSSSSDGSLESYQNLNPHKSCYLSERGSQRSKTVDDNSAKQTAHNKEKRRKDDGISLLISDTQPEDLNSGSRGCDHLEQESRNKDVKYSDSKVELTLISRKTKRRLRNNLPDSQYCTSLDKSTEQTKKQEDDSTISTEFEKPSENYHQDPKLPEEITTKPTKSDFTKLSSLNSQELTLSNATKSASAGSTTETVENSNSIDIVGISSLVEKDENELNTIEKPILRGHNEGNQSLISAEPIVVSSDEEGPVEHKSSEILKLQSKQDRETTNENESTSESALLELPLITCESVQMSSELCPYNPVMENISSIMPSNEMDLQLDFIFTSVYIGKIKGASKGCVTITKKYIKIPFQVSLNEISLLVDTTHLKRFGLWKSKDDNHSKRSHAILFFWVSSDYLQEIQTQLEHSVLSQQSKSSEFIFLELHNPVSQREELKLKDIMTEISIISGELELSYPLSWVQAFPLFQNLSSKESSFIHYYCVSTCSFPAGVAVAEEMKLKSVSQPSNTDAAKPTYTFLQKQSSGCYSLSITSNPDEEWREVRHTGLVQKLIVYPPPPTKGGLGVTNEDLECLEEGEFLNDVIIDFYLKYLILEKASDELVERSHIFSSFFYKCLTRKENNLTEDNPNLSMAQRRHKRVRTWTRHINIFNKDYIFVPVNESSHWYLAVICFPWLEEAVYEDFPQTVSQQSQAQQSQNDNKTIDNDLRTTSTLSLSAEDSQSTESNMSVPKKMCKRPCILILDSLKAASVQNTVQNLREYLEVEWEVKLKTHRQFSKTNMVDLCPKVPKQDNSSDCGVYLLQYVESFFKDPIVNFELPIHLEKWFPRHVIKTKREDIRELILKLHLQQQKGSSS

[14] = target: T4, Sentrin-specific protease 6 (Homo sapiens, UniProt Q9GZR1); experiment: SAR Analysis of small molecule inhibitors of Sentrin-specific protease 6 (SENP6) using a Luminescent assay. [Related pubchem assays (depositor defined):AID2582, AID2599]; format: functional
T4 sequence (Q9GZR1 whole entry): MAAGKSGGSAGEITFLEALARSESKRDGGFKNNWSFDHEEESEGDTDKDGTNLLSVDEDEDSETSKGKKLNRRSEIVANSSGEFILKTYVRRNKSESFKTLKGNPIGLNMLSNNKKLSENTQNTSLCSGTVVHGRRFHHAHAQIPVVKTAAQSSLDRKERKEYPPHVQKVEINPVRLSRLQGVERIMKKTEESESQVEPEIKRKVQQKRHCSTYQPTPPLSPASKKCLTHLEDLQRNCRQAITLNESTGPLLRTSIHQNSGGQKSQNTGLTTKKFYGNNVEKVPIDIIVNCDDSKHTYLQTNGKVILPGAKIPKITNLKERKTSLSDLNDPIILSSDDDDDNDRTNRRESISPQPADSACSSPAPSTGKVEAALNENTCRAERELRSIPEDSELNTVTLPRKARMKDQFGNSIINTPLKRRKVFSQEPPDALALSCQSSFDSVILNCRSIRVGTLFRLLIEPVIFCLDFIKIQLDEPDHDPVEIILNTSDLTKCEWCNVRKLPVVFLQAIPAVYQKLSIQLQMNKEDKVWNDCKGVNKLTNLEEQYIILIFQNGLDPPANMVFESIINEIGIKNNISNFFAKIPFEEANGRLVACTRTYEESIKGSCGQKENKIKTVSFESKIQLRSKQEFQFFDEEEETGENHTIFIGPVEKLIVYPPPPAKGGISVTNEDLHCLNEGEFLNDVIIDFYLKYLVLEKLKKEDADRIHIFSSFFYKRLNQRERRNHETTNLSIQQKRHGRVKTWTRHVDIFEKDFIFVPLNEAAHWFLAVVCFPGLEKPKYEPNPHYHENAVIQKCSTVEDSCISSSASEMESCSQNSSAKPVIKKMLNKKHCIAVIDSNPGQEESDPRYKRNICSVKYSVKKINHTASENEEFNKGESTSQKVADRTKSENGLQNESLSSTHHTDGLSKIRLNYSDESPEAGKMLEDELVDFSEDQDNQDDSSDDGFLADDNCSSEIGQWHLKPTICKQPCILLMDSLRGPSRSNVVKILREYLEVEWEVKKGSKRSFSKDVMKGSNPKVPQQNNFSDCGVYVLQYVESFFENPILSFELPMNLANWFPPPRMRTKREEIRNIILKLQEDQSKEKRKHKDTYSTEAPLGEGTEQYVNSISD

Caspase-3 [15] = target: T5, Caspase-3 (Homo sapiens, UniProt P42574); experiment: SAR Analysis of small molecule inhibitors of Sentrin-specific proteases (SENPs) using a Caspase-3 Selectivity assay. [Related pubchem assays (depositor defined):AID2540, AID2599, AID434973, AID489001]; format: functional
T5 sequence (P42574 whole entry): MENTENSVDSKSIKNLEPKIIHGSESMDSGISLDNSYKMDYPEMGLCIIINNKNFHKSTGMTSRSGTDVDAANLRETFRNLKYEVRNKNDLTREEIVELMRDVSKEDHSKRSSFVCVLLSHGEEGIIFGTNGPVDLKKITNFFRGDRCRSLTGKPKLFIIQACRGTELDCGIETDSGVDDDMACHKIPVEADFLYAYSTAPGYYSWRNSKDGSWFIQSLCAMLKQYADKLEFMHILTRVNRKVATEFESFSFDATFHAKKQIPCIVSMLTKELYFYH

[16] = target: T6, Sentrin-specific protease 8 (Homo sapiens, UniProt Q96LD8); experiment: SENP8 protease inhibitors, SAR follow-up, biochemical, luminescence (AID 504501); format: functional
T6 sequence (Q96LD8 whole entry): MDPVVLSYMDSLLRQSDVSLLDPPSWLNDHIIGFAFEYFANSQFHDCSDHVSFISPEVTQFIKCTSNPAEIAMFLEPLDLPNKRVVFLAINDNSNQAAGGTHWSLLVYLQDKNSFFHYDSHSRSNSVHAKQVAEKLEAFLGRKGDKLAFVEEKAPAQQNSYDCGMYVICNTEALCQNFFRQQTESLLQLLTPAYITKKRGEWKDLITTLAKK

[17] = target: T6, Sentrin-specific protease 8; format: functional
[18] = target: T4, Sentrin-specific protease 6; format: functional
[19] = target: T3, Sentrin-specific protease 7; format: functional
Caspase-3 [20] = target: T5, Caspase-3; format: functional

Nuclear receptor subfamily 5 group A member 2, sequence (O00482 whole entry): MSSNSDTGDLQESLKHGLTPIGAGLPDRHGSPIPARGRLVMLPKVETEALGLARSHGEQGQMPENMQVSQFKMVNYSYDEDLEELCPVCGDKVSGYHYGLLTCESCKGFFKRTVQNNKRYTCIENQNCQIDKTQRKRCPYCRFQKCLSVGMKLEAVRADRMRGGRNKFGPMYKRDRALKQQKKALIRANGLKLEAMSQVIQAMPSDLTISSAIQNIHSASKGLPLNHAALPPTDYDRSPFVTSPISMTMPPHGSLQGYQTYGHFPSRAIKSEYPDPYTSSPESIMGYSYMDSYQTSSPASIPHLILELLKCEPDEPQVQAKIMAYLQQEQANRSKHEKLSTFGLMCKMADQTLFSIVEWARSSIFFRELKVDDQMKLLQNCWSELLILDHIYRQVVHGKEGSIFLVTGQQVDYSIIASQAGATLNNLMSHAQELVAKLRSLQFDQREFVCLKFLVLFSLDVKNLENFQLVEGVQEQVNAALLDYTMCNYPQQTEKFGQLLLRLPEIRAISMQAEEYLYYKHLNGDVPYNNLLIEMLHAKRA

O=C(COc1ccc(S(=O)(=O)N2CCCC2)cc1Cl)Nc1ccc2c(c1)OCO2
IC50 [1]: 35.9 µM (inactive) | IC50 (Steroidogenic factor 1): 9.54 µM (active) | IC50 [2]: 35.9 µM (inactive)

COc1cc(C2Nc3cccc4cccc(c34)N2)cc(OC)c1O
EC50 (HEK293 [3]): > 55.9 µM (inactive) | EC50 (Insulin-degrading enzyme [4]): > 54.7 µM (inactive) | CC50 [5]: 2.1 µM (active) | IC50 (Protein Tat): 13.1 µM (inconclusive) | EC50 (Insulin-degrading enzyme [6]): > 54.7 µM (inactive) | IC50 (HEK293 [7]): > 89.2 µM (inactive) | IC50 (Estrogen receptor beta): 5.04 µM (not active)

COc1ccccc1CNc1nc(Nc2cccc(-c3cnco3)c2)c2sccc2n1
IC50 [8]: 42.4 µM (inactive) | AC50 [9]: 9.22 µM (active) | AC50 [10]: 45.6 µM (active) | AC50 [11]: 5.61 µM (active)

COc1ccc(NC(=O)COC(=O)Cc2c[nH]c3ccccc23)cc1Cl
IC50 [1]: 25.4 µM (inactive) | IC50 (Steroidogenic factor 1): 17.6 µM (inactive) | IC50 [2]: 35.9 µM (inactive)

C=C1C(=O)[C@]23C[C@H]1CCC2[C@@]1(C)C(C[C@@H]3O)[C@](C)(C(=O)OC)CC[C@@H]1OC(C)=O (stereo partly drawn)
AC50 [9]: 3.51 µM (active) | IC50 (Beta Lactamase): 18 µM (inactive) | IC50 [12]: 0.917 µM (active) | AC50 [10]: 7.22 µM (active) | AC50 [11]: 2.14 µM (active)

O=C(NN=c1c(=O)c2ccccc2c1=O)c1ccncc1
IC50 [13]: 17.8 µM (active) | IC50 [14]: 9.3 µM (active) | IC50 (Caspase-3 [15]): 76.5 µM (active) | IC50 [16]: 33.3 µM (active)

CC(=O)Nc1ccc(-c2nc3cc(Cl)ccc3o2)cc1
IC50 [17]: > 100 µM (inactive) | IC50 [18]: > 100 µM (inactive) | IC50 [19]: 2.77 µM (active) | IC50 [13]: 2.7 µM (active) | IC50 [14]: > 99 µM (inactive) | IC50 (Caspase-3 [20]): 54.9 µM (active) | IC50 (Caspase-3 [15]): 10.4 µM (active) | IC50 [16]: > 99 µM (inactive)

Cc1nc2ccccc2c(=O)n1-c1ccc(C(=O)O)cc1
EC50 (HEK293 [3]): > 55.9 µM (inactive) | EC50 (Insulin-degrading enzyme [4]): > 54.7 µM (inactive) | EC50 (Insulin-degrading enzyme [6]): > 54.7 µM (inactive) | IC50 (HEK293 [7]): > 89.2 µM (inactive)
